In patent publication US9107411B2, “Indolecarboxamides and benzimidazolecarboxamides as insecticides and acaricides” (BAYER INTELLECTUAL PROPERTY GMBH, priority 2011, dated 2015):
Read-outs that look alike come from different tables or passages of the source.

Assays:
Tetranychus urticae [1] = assay: Tetranychus test, OP-resistant (TETRUR spray treatment); type: in vivo; conditions: application rate 100 g/ha; bean leaf discs; after 6 days
Outline: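 Bean leaf discs infested with all stages of OP-resistant T. urticae sprayed with compound formulated in acetone/DMF plus alkylaryl polyglycol ether emulsifier, diluted in water. Efficacy (% mites killed) scored after 6 days.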

Tetranychus urticae [2] = assay: Common spider mite test (TETRUR); type: in vivo; conditions: application rate 100 ppm; bean leaf discs; after 6 days
Protocol: Common Spider Mite Test (TETRUR) Solvent: 3 parts by weight of dimethylformamide Emulsifier: 1 part by weight of polyoxyethylene alkylphenyl ether To produce an appropriate active ingredient formulation, 1 part by weight of active ingredient is mixed with the stated amounts of solvent and emulsifier, and the concentrate is diluted with emulsifier-containing water to the desired concentration. If required, ammonium salts or ammonium salts and penetrants are additionally added in a concentration of 1000 ppm. Discs of bean leaves (Phaseolus vulgaris) infested by all stages of the red spider mite (Tetranychus urticae) are sprayed with an active ingredient formulation of the desired concentration. After 6 days, the efficacy in % is determined. 100% means that all of the spider mites have been killed; 0% means that none of the spider mites have been killed.

logP (HPLC-MS) = type: physicochemical
Phaedon cochleariae = assay: Phaedon test (PHAECO spray treatment); type: in vivo; conditions: application rate 100 g/ha, Chinese cabbage leaf discs, after 7 days
Outline: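 Larval mortality was assessed 7 days after Phaedon cochleariae larvae were placed on dried, spray-treated Brassica pekinensis leaf discs. The formulation was an acetone/dimethylformamide concentrate with alkylaryl polyglycol ether emulsifier, diluted in emulsifier-containing water. Results are given as % kill, from 0 (no larvae dead) to 100 (all dead).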

Boophilus microplus = Boophilus microplus test (BOOPMI injection); type: in vivo; conditions: application rate 20 μg/animal; injected into the abdomen; after 7 days
Outline: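 Read-out after 7 days is % efficacy, judged by fertile egg laying, with 100% meaning no fertile eggs from any tick. Compound was given by abdominal injection as a DMSO solution diluted to the desired concentration. Treated ticks were held in dishes in a climate-controlled room.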

Lucilia cuprina larvae = assay: Lucilia cuprina test (LUCICU); type: in vivo; conditions: application rate 100 ppm; treated horse meat; after 2 days
Outline: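 Mortality scored as percent of larvae killed 2 days after exposure. Horse meat was treated with the compound, formulated from DMSO stock diluted with water to the test concentration, and populated with roughly 20 larvae.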

Spodoptera litura = Spodoptera litura test (PRODLI); type: in vivo; conditions: application rate 20 ppm; synthetic feed, L3 larvae; after 6 days
Protocol: Spodoptera litura Test (PRODLI) Solvent: 3 parts by weight of dimethylformamide Emulsifier: 1 part by weight of polyoxyethylene alkylphenyl ether To produce an appropriate active ingredient formulation, 1 part by weight of active ingredient is mixed with the stated amounts of solvent and emulsifier, and the concentrate is diluted with emulsifier-containing water to the desired concentration. The base of a PET vessel (diameter 7.5 cm, depth 4 cm) is covered with 2.3 g of a pulverulent synthetic feed mixture. Then 5 ml of the active ingredient formulation are added and mixed at the same time with the synthetic feed. After gelation, 5 L3 larvae of the cotton leafworm (Spodoptera litura) are placed into each vessel. After 6 days, the efficacy in % is determined 100% means that all of the larvae have been killed; 0% means that none of the larvae have been killed.

Ctenocephalides felis = Ctenocephalides felis oral (CTECFE); type: in vivo; conditions: application rate 100 ppm in citrated cattle blood; after 2 days
Outline: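 Readout is percent mortality after 2 days (0–100%) in roughly 20 unfed adult fleas. The fleas had imbibed citrated cattle blood dosed with compound through Parafilm, with the compound diluted from a DMSO concentrate.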

Spodoptera frugiperda = Spodoptera frugiperda test (SPODFR spray treatment); type: in vivo; conditions: application rate 100 g/ha; maize leaf discs; after 7 days
Outline: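 Mortality read-out at 7 days, given as % efficacy, where 100% means every caterpillar dead and 0% none. Caterpillars were placed on dried maize leaf discs that had been sprayed with test formulation. That formulation was an acetone/dimethylformamide concentrate diluted in emulsifier-containing water.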

chromatographic logP (logP (HPLC-MS); HPLC, reversed-phase column (C18), acidic range pH 2.7, acetonitrile (0.1% formic acid)/water gradient, 43° C., calibration with unbranched alkan-2-ones, read-out: log p)	chromatographic logP (logP (HPLC-MS); HPLC-MS)	log p (logP (HPLC-MS); HPLC, reversed-phase column (C18), acidic range pH 2.7, acetonitrile (0.1% formic acid)/water gradient, 43° C., calibration with unbranched alkan-2-ones)	Structure (SMILES)	efficacy in % (Tetranychus urticae [1])	efficacy in % (Tetranychus urticae [2])	pest or weed control at 100 g/ha (Phaedon cochleariae; Phaedon cochleariae, foliar, 168 h, read-out: efficacy in %)	efficacy (laying of fertile eggs) (Boophilus microplus)	efficacy (kill in %) (Lucilia cuprina larvae)	efficacy in % (Spodoptera litura)	efficacy (kill in %) (Ctenocephalides felis)	efficacy in % (Spodoptera frugiperda)	efficacy in % (Phaedon cochleariae)
3.78	3.8	–	CCn1c(C(=O)NC(c2cccc(C(F)(F)F)c2)C(F)(F)F)cc2cc(C(=O)NC3(C#N)CC3)c(Cl)cc21 (stereo not shown) [Compound 7, 6-chloro-N^5-(1-cyanocyclopropyl)-1-ethyl-N^2-{2,2,2-trifluoro-1-[3-(trifluoromethyl)phenyl]ethyl}-1H-indole-2,5-dicarboxamide]	100%	100%	100%	100%	100%	100%	100%	100%	–
–	–	3.59	C#CCn1c(C(=O)NC(c2ccc(F)c(C(F)(F)F)c2)C(F)(F)F)cc2cc(C(=O)NC3CC3)c(Cl)cc21 (stereo not shown) [Compound 6]	80%	100%	–	100%	100%	100%	100%	100%	100%
